Source: paper PMC3579865, “An Albumin-Derived Peptide Scaffold Capable of Binding and Catalysis” (PLoS ONE, 2013)

Target: T1, human serum albumin (HSA) (Homo sapiens, UniProt P02768)
T1 construct: gene ALB; native full-length HSA, essentially fatty acid free; also measured on GST-HSA100 (A194 to E294)
Test: tryptophan fluorescence quenching titration (Stern-Volmer and Hill analysis)
Assay type: binding

T1 sequence (P02768 25-609): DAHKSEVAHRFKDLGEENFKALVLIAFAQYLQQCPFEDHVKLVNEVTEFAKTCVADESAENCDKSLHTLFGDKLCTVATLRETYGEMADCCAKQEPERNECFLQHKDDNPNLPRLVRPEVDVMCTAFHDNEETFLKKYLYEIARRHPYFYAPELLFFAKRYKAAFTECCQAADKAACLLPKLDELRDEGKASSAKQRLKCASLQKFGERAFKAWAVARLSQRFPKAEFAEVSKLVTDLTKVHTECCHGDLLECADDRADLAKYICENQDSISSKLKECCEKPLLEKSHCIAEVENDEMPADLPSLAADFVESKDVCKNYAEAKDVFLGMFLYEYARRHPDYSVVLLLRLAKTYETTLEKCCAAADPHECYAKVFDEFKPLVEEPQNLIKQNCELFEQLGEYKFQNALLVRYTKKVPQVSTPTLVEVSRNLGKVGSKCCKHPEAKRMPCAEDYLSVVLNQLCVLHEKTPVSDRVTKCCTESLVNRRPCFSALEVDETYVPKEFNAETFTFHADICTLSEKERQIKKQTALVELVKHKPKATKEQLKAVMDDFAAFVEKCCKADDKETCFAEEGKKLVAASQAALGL

## O=C1Nc2ccc(Cl)cc2[C@@](C#CC2CC2)(C(F)(F)F)O1 [2a, efavirenz]
  Efavirenz / HSA: 1.89±0.04 10^−4 molL^−1
